Test results reported in ChEMBL document CHEMBL2073819, “Enhanced exposure of phosphatidylserine in human gastric carcinoma cells overexpressing the half-size ABC transporter BCRP (ABCG2)” (Biochem J, 2003).

What was measured:
Type in all cases: functional, cell-based
[1] = target: T1, Broad substrate specificity ATP-binding cassette transporter ABCG2 (Homo sapiens, UniProt Q9UNQ0); assay: TP_TRANSPORTER: efflux in BCRP-expressing EPG85-257 cells
T1 sequence (Q9UNQ0 whole entry): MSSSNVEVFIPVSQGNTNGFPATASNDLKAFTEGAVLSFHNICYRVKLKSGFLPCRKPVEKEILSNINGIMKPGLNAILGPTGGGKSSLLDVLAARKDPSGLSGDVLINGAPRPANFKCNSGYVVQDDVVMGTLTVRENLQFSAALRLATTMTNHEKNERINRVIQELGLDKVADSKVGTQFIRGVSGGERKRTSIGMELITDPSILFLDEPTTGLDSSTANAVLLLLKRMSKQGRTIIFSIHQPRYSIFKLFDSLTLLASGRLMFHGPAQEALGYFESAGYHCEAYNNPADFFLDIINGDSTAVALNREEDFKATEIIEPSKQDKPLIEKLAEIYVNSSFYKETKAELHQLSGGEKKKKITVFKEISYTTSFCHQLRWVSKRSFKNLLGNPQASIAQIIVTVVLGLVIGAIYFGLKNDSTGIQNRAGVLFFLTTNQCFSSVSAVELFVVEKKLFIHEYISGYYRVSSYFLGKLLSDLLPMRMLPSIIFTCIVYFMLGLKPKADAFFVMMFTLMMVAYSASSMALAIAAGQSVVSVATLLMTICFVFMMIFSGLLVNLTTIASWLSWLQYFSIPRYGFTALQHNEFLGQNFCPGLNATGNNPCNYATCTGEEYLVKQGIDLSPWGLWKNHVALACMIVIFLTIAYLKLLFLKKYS

[2] = target: T1, Broad substrate specificity ATP-binding cassette transporter ABCG2; assay: TP_TRANSPORTER: inhibition of C6-NBD-PS efflux in BCRP-expressing EPG85-257 cells
[3] = target: T2, ATP-dependent translocase ABCB1 (Homo sapiens, UniProt P08183); assay: TP_TRANSPORTER: inhibition of C6-NBD-PS efflux in MDR1-expressing EPG85-257 cells
T2 sequence (P08183 whole entry): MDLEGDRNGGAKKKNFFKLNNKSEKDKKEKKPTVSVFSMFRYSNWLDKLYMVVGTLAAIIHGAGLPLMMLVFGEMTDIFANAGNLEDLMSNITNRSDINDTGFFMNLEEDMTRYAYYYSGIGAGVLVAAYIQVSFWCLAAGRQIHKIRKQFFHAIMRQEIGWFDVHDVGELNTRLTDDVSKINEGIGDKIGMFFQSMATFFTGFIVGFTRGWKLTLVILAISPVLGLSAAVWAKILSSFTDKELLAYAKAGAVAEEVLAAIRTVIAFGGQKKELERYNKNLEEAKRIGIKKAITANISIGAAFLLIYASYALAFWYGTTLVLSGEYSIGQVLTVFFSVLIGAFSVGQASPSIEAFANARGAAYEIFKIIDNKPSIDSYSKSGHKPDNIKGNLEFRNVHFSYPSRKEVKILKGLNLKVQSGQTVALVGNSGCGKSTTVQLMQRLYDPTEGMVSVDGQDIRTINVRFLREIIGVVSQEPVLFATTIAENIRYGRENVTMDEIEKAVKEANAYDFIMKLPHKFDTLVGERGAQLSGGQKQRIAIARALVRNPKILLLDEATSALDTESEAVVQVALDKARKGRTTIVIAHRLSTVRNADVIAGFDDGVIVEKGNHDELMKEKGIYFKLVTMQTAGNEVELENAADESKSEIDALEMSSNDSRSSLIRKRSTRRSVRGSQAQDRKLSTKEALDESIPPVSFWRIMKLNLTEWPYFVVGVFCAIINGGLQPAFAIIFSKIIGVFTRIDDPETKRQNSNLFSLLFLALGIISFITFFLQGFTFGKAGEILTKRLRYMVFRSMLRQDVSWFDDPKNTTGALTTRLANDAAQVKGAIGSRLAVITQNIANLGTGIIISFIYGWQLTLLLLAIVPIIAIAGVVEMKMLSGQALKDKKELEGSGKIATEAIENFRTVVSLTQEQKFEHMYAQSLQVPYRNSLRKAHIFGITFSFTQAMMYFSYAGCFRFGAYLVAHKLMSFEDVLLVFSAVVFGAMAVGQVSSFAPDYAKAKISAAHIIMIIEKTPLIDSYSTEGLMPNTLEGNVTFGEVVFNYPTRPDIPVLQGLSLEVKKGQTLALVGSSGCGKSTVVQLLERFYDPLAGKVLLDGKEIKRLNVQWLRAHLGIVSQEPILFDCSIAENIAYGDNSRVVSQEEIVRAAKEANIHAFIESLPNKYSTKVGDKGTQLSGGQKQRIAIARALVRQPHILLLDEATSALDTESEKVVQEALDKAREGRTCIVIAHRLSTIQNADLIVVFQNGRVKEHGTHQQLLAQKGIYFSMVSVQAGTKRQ

[4] = target: T2, ATP-dependent translocase ABCB1; assay: TP_TRANSPORTER: efflux in MDR1-expressing EPG85-257 cells

Row | Activity [4] | Compound | Activity [1] | Activity [2] | Activity [3]
1 |  | CCCCCCCCCCCCCCCC(=O)OCC(COP(=O)([O-])OCC[N+](C)(C)C)OC(=O)CCCCCNc1ccc([N+](=O)[O-])c2nonc12 (stereo unspecified) | substrate [] |  | 
2 |  | COc1ccc2c(C[C@@H]3NC(=O)[C@@H]4CCCN4C3=O)c(CC=C(C)C)[nH]c2c1 [TRYPROSTATIN A] |  | inhibitor [] | inhibitor []
3 |  | COc1cc2c(cc1OC)CN(CCc1ccc(NC(=O)c3cccc4c(=O)c5cccc(OC)c5[nH]c34)cc1)CC2.Cl [ELACRIDAR HYDROCHLORIDE] |  | inhibitor [] | 
4 | substrate [] | CCCCCCCC/C=C\CCCCCCCC(=O)OC(COC(=O)CCCCCCC/C=C/CCCCCCCC)COP(=O)(O)OC[C@H](Nc1ccc([N+](=O)[O-])c2nonc12)C(=O)O (stereo partly specified) | substrate [] |  | 
